Experiments:
[1] = Fecal recovery of orally administered compounds; type: in vivo, Sprague-Dawley rats; conditions: Structure (I) examples, Table 16; rat, oral gavage, feces collected until 48 hr after dosing
Method in brief: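 After oral dosing, feces collected in metabolic cages up to 48 h, lyophilized and ground. Duplicate weighed portions per animal extracted with organic solvent under non-compound-optimized conditions, so recovery may be a minimal estimate.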

[2] = Stability of compounds in simulated gastric fluid (SGF); type: in vitro ADME; conditions: simulated gastric fluid (3 mg/mL pepsin), incubation time 6 hr, relative to t=0
Method in brief: (§1)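 Compounds at […] were incubated 3 or 6 hr in USP simulated gastric fluid with 3 mg/mL pepsin or simulated intestinal fluid with 3 mg/mL pancreatin. Remaining compound was quantified by HPLC-UV or HPLC-MS peak area % and reported as percent of the t=0 level in the same medium.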

[3] = Stability of compounds in simulated intestinal fluid (SIF); type: in vitro ADME; conditions: simulated intestinal fluid (3 mg/mL pancreatin), incubation time 6 hr, relative to t=0
Method in brief: as §1

human NaP2b (SLC34A2) = biological target: T1, human NaP2b (SLC34A2) (Homo sapiens, UniProt O95436); assay: Inhibition of NaP2b-mediated Pi (33P) uptake in transfected HEK293 cells, human NaP2b; type: cell-based; conditions: read-out: pIC50 range for human NaP2b (converted)
T1 construct: host or cells: HEK293
T1 sequence (O95436 1-690): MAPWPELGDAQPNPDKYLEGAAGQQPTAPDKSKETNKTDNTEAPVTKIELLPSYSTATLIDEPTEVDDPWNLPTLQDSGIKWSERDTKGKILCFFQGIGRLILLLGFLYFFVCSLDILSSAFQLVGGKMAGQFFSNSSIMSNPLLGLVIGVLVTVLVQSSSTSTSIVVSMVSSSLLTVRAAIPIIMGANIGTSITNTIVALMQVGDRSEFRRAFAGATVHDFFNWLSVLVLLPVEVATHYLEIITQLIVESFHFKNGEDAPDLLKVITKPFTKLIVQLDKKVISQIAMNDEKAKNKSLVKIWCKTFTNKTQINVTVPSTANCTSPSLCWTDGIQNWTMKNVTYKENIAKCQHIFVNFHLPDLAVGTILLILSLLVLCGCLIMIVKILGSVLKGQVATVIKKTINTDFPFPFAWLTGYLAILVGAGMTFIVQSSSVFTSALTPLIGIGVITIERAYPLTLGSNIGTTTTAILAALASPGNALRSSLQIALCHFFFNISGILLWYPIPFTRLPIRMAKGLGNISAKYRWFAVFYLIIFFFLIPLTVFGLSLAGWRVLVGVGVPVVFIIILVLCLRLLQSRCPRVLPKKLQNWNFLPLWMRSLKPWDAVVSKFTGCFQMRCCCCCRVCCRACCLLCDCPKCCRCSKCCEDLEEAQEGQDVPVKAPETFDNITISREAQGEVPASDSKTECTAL
Method in brief: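 Uptake of 33P-phosphate (100 uM KH2PO4 carrier, sodium vs choline buffer, pH 7.4) measured after 3-30 min at room temperature, with test compound at twelve concentrations from 0.1 nM to 30 uM in duplicate. Cells were HEK293 transfected with mutated human NaP2b (Thr insertion after 37, N39D) and treated with a PiT-silencing agent. pIC50 values from scintillation counts.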

% recovered in feces [1] | % remaining, SGF [2] | % remaining, SIF [3] | IC50 (human NaP2b (SLC34A2)) [µM] | Structure (SMILES)
 | >80% | >80% | < 1 | O=C(O)CCOCCOCCOCCOCCCc1cccc(C(=O)Nc2ccc(N3CCCCC3)cc2-c2cc(C(=O)N[C@H]3CCCc4ccccc43)ccn2)c1 [Example 252, 3-(2-(2-(2-(3-(3-((2-(4-(((S)-1,2,3,4-tetrahydronaphthalen-1-yl)carbamoyl)pyridin-2-yl)-4-(piperidin-1-yl)phenyl)carbamoyl)phenyl)propoxy)ethoxy)ethoxy)ethoxy)propanoic acid]
>80% |  |  | 1 to 7.94 | CCN(CC)c1ccc(NC(=O)c2cccc(CCCOCCOCCOCCOCCNS(=O)(=O)c3ccc(C(=O)N(CCOC)CCOCCOCCOCCOCCOCCOCCOC)cc3)c2)c(-c2cc(C(=O)NCc3cccc(C(F)(F)F)c3)ccn2)c1 [Example 272, 2-(2-(3-(1-(4-(2,5,8,11,14,17,20-heptaoxadocosan-22-yl(2-methoxyethyl)carbamoyl)phenylsulfonamido)-3,6,9,12-tetraoxapentadecan-15-yl)benzamido)-5-(diethylamino)phenyl)-N-(3-(trifluoromethyl)benzyl)isonicotinamide]
>80% |  |  | 1 to 7.94 | CCN(CC)c1ccc(NC(=O)c2cccc(CCCOCCOCCOCCOCCOCCOCCOCCOCCOCCC(=O)O)c2)c(-c2cc(C(=O)NCc3cccc(C(F)(F)F)c3)ccn2)c1 [Example 298, 31-(3-(4-(diethylamino)-2-(4-(3-(trifluoromethyl)benzylcarbamoyl)pyridin-2-yl)phenylcarbamoyl)phenyl)-4,7,10,13,16,19,22,25,28-nonaoxahentriacontan-1-oic acid]
20-80% |  |  | < 1 | CCN(CC)c1ccc(NC(=O)c2cccc(CCCOCCOCCOCCOCCOCCOCCC(=O)O)c2)c(-c2cc(C(=O)NCc3cccc(C(F)(F)F)c3)ccn2)c1 [Example 299, 22-(3-(4-(diethylamino)-2-(4-(3-(trifluoromethyl)benzylcarbamoyl)pyridin-2-yl)phenylcarbamoyl)phenyl)-4,7,10,13,16,19-hexaoxadocosan-1-oic acid]
20-80% |  |  | < 1 | CCN(CC)c1ccc(NC(=O)c2cccc(CCCOCCOCCOCCOCCOCCC(=O)O)c2)c(-c2cc(C(=O)NCc3cccc(C(F)(F)F)c3)ccn2)c1 [Example 300, 19-(3-(4-(diethylamino)-2-(4-(3-(trifluoromethyl)benzylcarbamoyl)pyridin-2-yl)phenylcarbamoyl)phenyl)-4,7,10,13,16-pentaoxanonadecan-1-oic acid]

More lines, now with the values behind:

Structure (SMILES) | % recovered in feces [1] | % remaining, SGF [2] | % remaining, SIF [3] | IC50 (human NaP2b (SLC34A2)) [µM]
O=C(O)c1cccc(SCc2cccc(C(=O)Nc3ccc(N4CCCCC4)cc3-c3cc(C(=O)NCc4cccc(C(F)(F)F)c4)ccn3)c2)c1 [Example 8.1, 3-(3-(4-(piperidin-1-yl)-2-(4-(3-(trifluoromethyl)benzylcarbamoyl)pyridin-2-yl)phenylcarbamoyl)benzylthio)benzoic acid] | <20% | 60-80% | >80% | < 1
O=C(NCc1cccc(C(F)(F)F)c1)c1ccnc(-c2cc(N3CCCCC3)ccc2NC(=O)c2cccc(CSc3ccc(C(=O)O)c(Br)c3)c2)c1 [Example 8.21] | >80% | >80% | >80% | 1.26
CN(CCN1CCOCC1)C(=O)c1cccc(C(=O)Nc2ccc(N3CCCCC3)cc2-c2cc(C(=O)NCc3cccc(C(F)(F)F)c3)ccn2)c1 [Example 80, N1-Methyl-N1-(2-morpholinoethyl)-N3-(4-(piperidin-1-yl)-2-(4-((3-(trifluoromethyl)benzyl)carbamoyl)pyridin-2-yl)phenyl)isophthalamide] | 20-80% |  |  | 1 to 7.94
CN(CCOCCOCCOCCC(=O)O)C(=O)Cc1cccc(SCc2cccc(C(=O)Nc3ccc(N4CCCCC4)cc3-c3cc(C(=O)NCc4cccc(C(F)(F)F)c4)ccn3)c2)c1 [Example 138] | <20% | >80% | 40-60% | 1 to 7.94
O=C(O)CCOCCOCCOCCOCCSCc1cccc(C(=O)Nc2ccc(N3CCCCC3)cc2-c2cc(C(=O)N[C@H]3CCCc4ccccc43)ccn2)c1 [Example 142, 1-(3-{[4-(piperidin-1-yl)-2-(4-{[(1S)-1,2,3,4-tetrahydronaphthalen-1-yl]carbamoyl}pyridin-2-yl)phenyl]carbamoyl}phenyl)-5,8,11,14-tetraoxa-2-thiaheptadecan-17-oic acid] |  | >80% | >80% | 1 to 7.94
CCN(CC)c1ccc(NC(=O)c2cccc(CSc3cccc(CC(=O)N(C)CCOCCOCCOCCC(=O)O)c3)c2)c(-c2cc(C(=O)NCc3cccc(C(F)(F)F)c3)ccn2)c1 [Example 144, 3-(2-(2-(2-(2-(3-(3-(4-(diethylamino)-2-(4-(3-(trifluoromethyl)benzylcarbamoyl)pyridin-2-yl)phenylcarbamoyl)benzylthio)phenyl)-N-methylacetamido)ethoxy)ethoxy)ethoxy)propanoic acid] |  | >80% | >80% | < 1
CCN(CC)c1ccc(NC(=O)c2cccc(CSCCOCCOCCOCCOCCOCCOCCOCCOCCC(=O)O)c2)c(-c2cc(C(=O)N[C@H]3CCCc4ccccc43)ccn2)c1 [Example 161, (S)-1-(3-(4-(diethylamino)-2-(4-(1,2,3,4-tetrahydronaphthalen-1-ylcarbamoyl)pyridin-2-yl)phenylcarbamoyl)phenyl)-5,8,11,14,17,20,23,26-octaoxa-2-thianonacosan-29-oic acid] | >80% | >80% | >80% | 1 to 7.94
CCN(CC)c1ccc(NC(=O)c2cccc(CSCCOCCOCCOCCOCCC(=O)O)c2)c(-c2cc(C(=O)NCc3cccc(C(F)(F)F)c3)ccn2)c1 [Example 162, 1-(3-(4-(diethylamino)-2-(4-(3-(trifluoromethyl)benzylcarbamoyl)pyridin-2-yl)phenylcarbamoyl)phenyl)-5,8,11,14-tetraoxa-2-thiaheptadecan-17-oic acid] | 20-80% | >80% | >80% | < 1
CCN(CC)c1ccc(NC(=O)c2cccc(CSCCOCCOCCOCCOCCOCCOCCOCCOCCC(=O)O)c2)c(-c2cc(C(=O)NCc3cccc(C(F)(F)F)c3)ccn2)c1 [Example 166, 1-(3-(4-(diethylamino)-2-(4-(3-(trifluoromethyl)benzylcarbamoyl)pyridin-2-yl)phenylcarbamoyl)phenyl)-5,8,11,14,17,20,23,26-octaoxa-2-thianonacosan-29-oic acid] | >80% | >80% | >80% | 1 to 7.94
CCN(CC)c1ccc(NC(=O)c2cccc(C(=O)N(C)CCOCCOCCOCCC(=O)O)c2)c(-c2cc(C(=O)NCc3cccc(C(F)(F)F)c3)ccn2)c1 [Example 188, 1-(3-((4-(diethylamino)-2-(4-((3-(trifluoromethyl)benzyl)carbamoyl)pyridin-2-yl)phenyl)carbamoyl)phenyl)-2-methyl-1-oxo-5,8,11-trioxa-2-azatetradecan-14-oic acid] |  |  |  | 1 to 7.94

Source: patent publication US20140023611A1 (priority 2010, published 2014)
